In patent publication US6737383B1, “Herbicidal oxadiazolidines” (priority 1999, dated 2004):

What was measured:
morningglory = experiment: Test B pre/postemergence morningglory; format: in vivo, Ipomoea hederacea
Outline: (§1)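 Response is a visual 0-to-10 score relative to untreated plants, where 0 means no effect and 10 means complete control, taken twelve to sixteen days after application. Treatments went onto soil at planting and onto foliage of 1- to 4-leaf plants, using a surfactant-containing non-phytotoxic solvent.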

bedstraw = experiment: Test B pre/postemergence bedstraw; format: in vivo, Galium aparine; settings: Postemergence
Outline: as §1

pigweed = experiment: Test B pre/postemergence pigweed; format: in vivo, Amaranthus retroflexus
Outline: as §1

cocklebur = experiment: Test B pre/postemergence cocklebur; format: in vivo, Xanthium strumarium
Outline: as §1

duck salad = experiment: Test B flood test duck salad; format: in vivo, Heteranthera limosa
Outline: (§2)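 Read-out is a visual response score from 0 (no effect) to 10 (complete control), assigned by comparison with untreated controls. Treatment was applied at the 2-leaf stage, and plants stayed in the greenhouse for twelve to sixteen days before scoring.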

blackgrass = experiment: Test B pre/postemergence blackgrass; format: in vivo, Alopecurus myosuroides
Outline: as §1

velvetleaf = experiment: Test B pre/postemergence velvetleaf; format: in vivo, Abutilon theophrasti
Outline: as §1

surinam grass = experiment: Test B pre/postemergence surinam grass; format: in vivo, Brachiaria decumbens
Outline: as §1

wild oat = experiment: Test B pre/postemergence wild oat; format: in vivo, Avena fatua
Outline: as §1

smallflower flatsedge = experiment: Test B flood test smallflower flatsedge; format: in vivo, Cyperus difformis
Outline: as §2

soybean = experiment: Test B pre/postemergence soybean; format: in vivo, Glycine max
Outline: as §1

giant foxtail = experiment: Test B pre/postemergence giant foxtail; format: in vivo, Setaria faberii
Outline: as §1

corn = experiment: Test B pre/postemergence corn; format: in vivo, Zea mays
Outline: as §1

rice = experiment: Test B flood test rice; format: in vivo, Oryza sativa
Outline: as §2

wheat = experiment: Test B pre/postemergence wheat; format: in vivo, Triticum aestivum
Outline: as §1

sugar beet = experiment: Test B pre/postemergence sugar beet; format: in vivo, Beta vulgaris
Outline: as §1

rape = experiment: Test B pre/postemergence rape; format: in vivo, Brassica napus
Outline: as §1

purple nutsedge = experiment: Test B pre/postemergence purple nutsedge; format: in vivo, Cyperus rotundus
Outline: as §1

bamyardgrass = experiment: Test B flood test barnyardgrass; format: in vivo, Echinochloa crus-galli
Outline: as §2

crabgrass = experiment: Test B pre/postemergence crabgrass; format: in vivo, Digitaria sanguinalis
Outline: as §1

[1] = Postemergence, Rate 125 g/ha, scale 0 to 10, 0 is no effect, 10 is complete control
[2] = Postemergence, Rate 500 g/ha, scale 0 to 10, 0 is no effect, 10 is complete control
[3] = Preemergence, Rate 62 g/ha, scale of 0 to 10 where 0 is no effect and 10 is complete control
[4] = Preemergence, Rate 125 g/ha, scale 0 to 10, 0 is no effect, 10 is complete control
[5] = Preemergence, Rate 500 g/ha, scale 0 to 10, 0 is no effect, 10 is complete control
[6] = Rate 62 g/ha, Postemergence, scale 0 to 10 (0 no effect, 10 complete control)
[7] = Postemergence, Rate 250 g/ha, scale 0 to 10
[8] = Preemergence, Rate 250 g/ha, scale 0 to 10, 0 is no effect, 10 is complete control
[9] = Rate 62 g/ha, flood test species, Pre-emergence, visual evaluation after twelve to sixteen days
[10] = Rate 125 g/ha, under heading Pre-emergence, flood test species, visual evaluation after twelve to sixteen days
[11] = Rate 250 g/ha, Pre-emergence (flood test species), scale 0 to 10, 0 is no effect, 10 is complete control
[12] = Rate 500 g/ha, Pre-emergence section of Table B, 0 to 10 scale (0 no effect, 10 complete control)

CC(C)N(C(=O)n1oc(=O)n(CC(=O)C2CC2)c1=O)c1ccccc1 [Compound 489]
6: Blackgrass plant response rating (blackgrass; [1]) | B. signalgrass plant response rating (surinam grass; Postemergence, Rate 250 g/ha, scale 0 to 10, 0 no effect, 10 complete control) | Plant response rating, B. signalgrass (surinam grass; [3]) | Wheat plant response rating (wheat; [5])
5: Bedstraw plant response rating (bedstraw; Rate 250 g/ha, scale 0 to 10) | Plant response rating, Velvetleaf (velvetleaf; [2]) | Soybean plant response rating (soybean; [1]) | Corn plant response rating (corn; [5]) | Sugarbeets plant response rating (sugar beet; [5]) | Crabgrass plant response rating (crabgrass; [1])
3: Bedstraw plant response rating (bedstraw; Rate 125 g/ha, scale 0 to 10, 0 is no effect, 10 is complete control) | Plant response rating, Wild oats (wild oat; [2]) | Soybean plant response rating (soybean; [5]) | Soybean plant response rating (soybean; [6])
7: Morningglory plant response rating (morningglory; [1]) | Plant response rating, Blackgrass (blackgrass; [3]) | Velvetleaf plant response rating (velvetleaf; [5]) | B. signalgrass plant response rating (surinam grass; [4]) | Plant response rating, Soybean (soybean; [2])
2: Morningglory plant response rating (morningglory; [6]) | Plant response rating, Redroot pigweed (pigweed; [2]) | Plant response rating, Velvetleaf (velvetleaf; [3]) | Velvetleaf plant response rating (velvetleaf; [4]) | B. signalgrass plant response rating (surinam grass; [1]) | Giant foxtail plant response rating (giant foxtail; [6]) | Plant response rating, Wheat (wheat; [2]) | Sugarbeets plant response rating (sugar beet; [4]) | Crabgrass plant response rating (crabgrass; [6])
4: Wild oats plant response rating (wild oat; [4]) | Plant response rating, Corn (corn; [2])
10: Plant response rating, Morningglory (morningglory; [2]) | Redroot pigweed plant response rating (pigweed; [5]) | Blackgrass plant response rating (blackgrass; [5]) | Giant foxtail plant response rating (giant foxtail; [4]) | Giant foxtail plant response rating (giant foxtail; [5]) | Crabgrass plant response rating (crabgrass; [4]) | Crabgrass plant response rating (crabgrass; [5])
0: Plant response rating, Morningglory (morningglory; [3]) | Morningglory plant response rating (morningglory; [4]) | Bedstraw plant response rating (bedstraw; Rate 62 g/ha, scale 0 to 10 (0 no effect, 10 complete control)) | Redroot pigweed plant response rating (pigweed; [1]) | Plant response rating, Redroot pigweed (pigweed; [3]) | Redroot pigweed plant response rating (pigweed; [6]) | Cocklebur plant response rating (cocklebur; [1]) | Cocklebur plant response rating (cocklebur; [7]) | Plant response rating, Cocklebur (cocklebur; [2]) | Plant response rating, Cocklebur (cocklebur; [3]) | Cocklebur plant response rating (cocklebur; [4]) | Cocklebur plant response rating (cocklebur; [8]) | Cocklebur plant response rating (cocklebur; [5]) | Cocklebur plant response rating (cocklebur; [6]) | Plant response rating, Ducksalad (0 to 10 scale, 0 is no effect, 10 is complete control) (duck salad; [9]) | Ducksalad plant response rating (0 to 10 scale, 0 is no effect, 10 is complete control) (duck salad; [10]) | Ducksalad plant response rating (duck salad; [11]) | Ducksalad plant response rating (duck salad; [12]) | Velvetleaf plant response rating (velvetleaf; [1]) | Velvetleaf plant response rating (velvetleaf; [6]) | Plant response rating, Wild oats (wild oat; [3]) | Wild oats plant response rating (wild oat; [6]) | Plant response rating, S. Flatsedge (0 to 10 scale, 0 is no effect, 10 is complete control) (smallflower flatsedge; [9]) | S. Flatsedge plant response rating (0 to 10 scale, 0 is no effect, 10 is complete control) (smallflower flatsedge; [10]) | S. Flatsedge plant response rating (smallflower flatsedge; [11]) | S. Flatsedge plant response rating (smallflower flatsedge; [12]) | Plant response rating, Soybean (soybean; [3]) | Corn plant response rating (corn; [1]) | Corn plant response rating (corn; [7]) | Plant response rating, Corn (corn; [3]) | Corn plant response rating (corn; [4]) | Corn plant response rating (corn; [6]) | Plant response rating, Rice (0 to 10 scale, 0 is no effect, 10 is complete control) (rice; [9]) | Rice plant response rating (0 to 10 scale, 0 is no effect, 10 is complete control) (rice; [10]) | Rice plant response rating (rice; [11]) | Rice plant response rating (rice; [12]) | Wheat plant response rating (wheat; [1]) | Plant response rating, Wheat (wheat; [3]) | Wheat plant response rating (wheat; [4]) | Wheat plant response rating (wheat; [6]) | Sugarbeets plant response rating (sugar beet; [1]) | Plant response rating, Sugarbeets (sugar beet; [2]) | Plant response rating, Sugarbeets (sugar beet; [3]) | Sugarbeets plant response rating (sugar beet; [6]) | Rape plant response rating (rape; [1]) | Plant response rating, Rape (rape; [2]) | Plant response rating, Rape (rape; [3]) | Rape plant response rating (rape; [4]) | Rape plant response rating (rape; [6]) | Nutsedge plant response rating (purple nutsedge; [1]) | Plant response rating, Nutsedge (purple nutsedge; [2]) | Plant response rating, Nutsedge (purple nutsedge; [3]) | Nutsedge plant response rating (purple nutsedge; [4]) | Nutsedge plant response rating (purple nutsedge; [5]) | Nutsedge plant response rating (purple nutsedge; [6]) | Plant response rating, Barnyardgrass (0 to 10 scale, 0 is no effect, 10 is complete control) (bamyardgrass; [9]) | Barnyardgrass plant response rating (0 to 10 scale, 0 is no effect, 10 is complete control) (bamyardgrass; [10]) | Barnyardgrass plant response rating (bamyardgrass; [11]) | Barnyardgrass plant response rating (bamyardgrass; [12])
1: Morningglory plant response rating (morningglory; [5]) | Blackgrass plant response rating (blackgrass; [6]) | B. signalgrass plant response rating (surinam grass; [6]) | Wild oats plant response rating (wild oat; [1]) | Soybean plant response rating (soybean; [4])
9: Blackgrass plant response rating (blackgrass; [8]) | B. signalgrass plant response rating (surinam grass; [5]) | Wild oats plant response rating (wild oat; [5]) | Plant response rating, Giant foxtail (giant foxtail; [2]) | Plant response rating, Giant foxtail (giant foxtail; [3]) | Rape plant response rating (rape; [5]) | Plant response rating, Crabgrass (crabgrass; [2]) | Plant response rating, Crabgrass (crabgrass; [3])
8: Blackgrass plant response rating (blackgrass; [7]) | Plant response rating, Blackgrass (blackgrass; [2]) | Blackgrass plant response rating (blackgrass; [4]) | Plant response rating, B. signalgrass (surinam grass; [2]) | B. signalgrass plant response rating (surinam grass; [8]) | Giant foxtail plant response rating (giant foxtail; [1]) | Crabgrass plant response rating (crabgrass; [7])
